Assay results taken from ChEMBL document CHEMBL4619743, “Synthetic approaches towards bedaquiline and its derivatives” (2020).
In brackets after ≈: the same amount, converted by molar mass.

Columns and labels:
[1] = system: Mycobacterium tuberculosis; test: Antimycobacterial activity against Mycobacterium tuberculosis; assay type: functional
[2] = system: Mycobacterium tuberculosis; test: Antimycobacterial activity against Mycobacterium tuberculosis H37Rv; assay type: functional

COc1cc2ccc(Br)cc2cc1[C@@H]1O[C@H]1CO
MIC90 [1]: 0.13 to 0.5 µg/mL (≈ 0.42 to 1.62 µM) | MIC90 [2]: 0.11 µg/mL (≈ 0.356 µM)

COc1cc2ccc(Br)cc2cc1[C@@H](c1ccccc1)[C@@](O)(CCN(C)C)c1cccc(Br)c1
MIC90 [2]: 0.01 µg/mL (≈ 0.0171 µM)

COc1cc2ccc(Br)cc2cc1[C@@H](c1ccccc1)[C@@](O)(CCN(C)C)c1cccc2ccccc12
MIC90 [2]: 0.59 µg/mL (≈ 1.06 µM)
